Measurements published in patent US9192577B2, “Pharmaceutical compositions comprising a basic drug compound, a surfactant, and a physiologically tolerable water soluble acid” (Janssen Pharmaceutica NV, priority 2002, dated 2015).
Where two headings read alike, the source gives them in different places.

Assays:
HIV = test: in vitro anti-HIV assay: inhibition of HIV-induced cytopathic effect in MT-4 cells (MTT); assay type: cell-based; settings: for pSI: pSI = pCC50-pIC50 (selectivity index CC50/IC50); for pIC50 (M): −log IC50
Experimental: (§1) A rapid, sensitive and automated assay procedure was used for the in vitro evaluation of anti-HIV agents. […] Inhibition of the HIV-induced cytopathic effect was used as the end point. The viability of both HIV- and mock-infected cells was assessed spectrophotometrically via the in situ reduction of 3-(4,5-dimethylthiazol-2-yl)-2,5-diphenyltetrazolium bromide (MTT). The 50% cytotoxic concentration (CC50 in M) was defined as the concentration of compound that reduced the absorbance of the mock-infected control sample by 50%. The percent protection achieved by the compound in HIV-infected cells was calculated by the following formula:
(§2) [formula] whereby (ODT)HIV is the optical density measured with a given concentration of the test compound in HIV-infected cells; (ODC)HIV is the optical density measured for the control untreated HIV-infected cells; (ODC)MOCK is the optical density measured for the control untreated mock-infected cells; all optical density values were determined at 540 nm. The dose achieving 50% protection according to the above formula was defined as the 50% inhibitory concentration (IC50 in M). The ratio of CC50 to IC50 was defined as the selectivity index (SI).

mock-infected MT-4 cells = test: cytotoxicity (CC50) in mock-infected MT-4 cells (MTT); assay type: cell-based
Experimental: as §1, §2

[1] = 50% protection against HIV-induced cytopathic effect in MT-4 cells, MTT

| Compound | pSI (HIV) | pIC50 (M) (HIV; [1]) | pCC50 (M) (mock-infected MT-4 cells) | IC50 (HIV; Human immunodeficiency virus 1, MT4, −log IC50, 50% protection against HIV-induced cytopathic effect in MT-4 cells, MTT) | pCC50 (M) (mock-infected MT-4 cells; −log CC50, mock-infected MT-4 cells, MTT) |
| --- | --- | --- | --- | --- | --- |
| Cc1cc(C=C(C#N)CC#N)cc(C)c1Nc1ccnc(Nc2ccc(C#N)cc2)n1 (mixture of isomers) [Compound 147] | −3.7 | 9.4 M | 5.7 M | – | – |
| Cc1cc(/C=C/C#N)cc(C)c1Nc1ccnc(Nc2ccc(C#N)cc2)n1 [Compound 1, 4-[[4-[[4-(2-cyanoethenyl)-2,6-dimethylphenyl]amino]-2-pyrimidinyl]amino]benzonitrile] | −4.4 | – | – | – | – |
| Cc1cc(/C=C/C#N)cc(C)c1Nc1ccnc(Nc2ccc(C#N)cc2)n1 [Compound 10] | −2.9 | – | – | 0.631 nM | 6.3 M |
| Cc1cc(C=CC#N)cc(C)c1Oc1ccnc(Nc2ccc(C#N)cc2)n1 [Compound 25] | −5 | 9 M | – | – | – |
| CC(=NO)c1cc(C)c(Nc2ccnc(Nc3ccc(C#N)cc3)n2)c(C)c1 [Compound 45] | −3.8 | 8.7 M | 5.0 M | – | – |
| Cc1cc(CN(C)CCC#N)cc(C)c1Nc1ccnc(Nc2ccc(C#N)cc2)n1 [Compound 75] | −4.0 | 9.0 M | 5.0 M | – | – |
| C/C(=C\C#N)c1cc(C)c(Nc2ccnc(Nc3ccc(C#N)cc3)n2)c(C)c1 [Compound 84] | −4.5 | 9.0 M | 4.5 M | – | – |
| Cc1cc(/C=C/C#N)cc(Cl)c1Nc1ccnc(Nc2ccc(C#N)cc2)n1 [Compound 133] | −5.2 | 9.2 M | 4 M | – | – |
| Cc1cc(CC(C#N)C#N)cc(C)c1Nc1ccnc(Nc2ccc(C#N)cc2)n1 [Compound 144] | −2.2 | 8.6 M | 6.4 M | – | – |
| Cc1cc(/C=C/c2cccnc2)cc(C)c1Nc1ccnc(Nc2ccc(C#N)cc2)n1 [Compound 146] | −3 | – | – | – | – |
| CC/C(=C\C#N)c1cc(C)c(Nc2ccnc(Nc3ccc(C#N)cc3)n2)c(C)c1 [Compound 148] | −3.9 | 8.8 M | 4.9 M | – | – |
| Cc1cc(/C(=C/C#N)C(C)C)cc(C)c1Nc1ccnc(Nc2ccc(C#N)cc2)n1 [Compound 149] | −3.8 | 9.1 M | 5.3 M | – | – |
| Cc1cc(/C(=C\C#N)C(C)C)cc(C)c1Nc1ccnc(Nc2ccc(C#N)cc2)n1 [Compound 150] | −4.0 | 8.8 M | 4.8 M | – | – |
| CC(C#N)=Cc1cc(C)c(Nc2ccnc(Nc3ccc(C#N)cc3)n2)c(C)c1 [Compound 151] | −3.6 | 9.1 M | 5.5 M | – | – |
| CC(C#N)=Cc1cc(C)c(Nc2ccnc(Nc3ccc(C#N)cc3)n2)c(C)c1 [Compound 152] | −4.3 | 9.1 M | 4.8 M | – | – |
| Cc1cc(CC(C)C#N)cc(C)c1Nc1ccnc(Nc2ccc(C#N)cc2)n1 (stereo not shown) [Compound 153] | −2.9 | 9.2 M | 6.3 M | – | – |
| CCN(C)C(=O)/C=C/c1cc(C)c(Nc2ccnc(Nc3ccc(C#N)cc3)n2)c(C)c1 [Compound 158] | −2.5 | 8 M | 5.5 M | – | – |
| Cc1cc(CN(C)C=NC#N)cc(C)c1Oc1ccnc(Nc2ccc(C#N)cc2)n1 [Compound 174] | −3.5 | 8.8 M | 5.3 M | – | – |
| Cc1cc(/C=C\Br)cc(C)c1Oc1ccnc(Nc2ccc(C#N)cc2)n1 [Compound 177] | <−4.3 | 8.3 M | <4.0 M | – | – |
| CC(C#N)=Cc1cc(C)c(Oc2ccnc(Nc3ccc(C#N)cc3)n2)c(C)c1 [Compound 178] | −3.1 | 8.8 M | 5.7 M | – | – |
| CC(C#N)=Cc1cc(C)c(Oc2ccnc(Nc3ccc(C#N)cc3)n2)c(C)c1 [Compound 179] | <−4.9 | 8.9 M | <4.0 M | – | – |
| Cc1cc(/C=C/C(=O)N(C)CC#N)cc(C)c1Oc1ccnc(Nc2ccc(C#N)cc2)n1 [Compound 212] | −4.1 | 9.1 M | 5 M | – | – |
| C/C(=C\C#N)c1cc(C)c(Oc2ccnc(Nc3ccc(C#N)cc3)n2)c(C)c1 [Compound 213] | −4.2 | 9 M | 4.8 M | – | – |

| Compound | pSI (HIV) | pIC50 (M) (HIV; [1]) | pCC50 (M) (mock-infected MT-4 cells) | IC50 (HIV; Human immunodeficiency virus 1, MT4, −log IC50, 50% protection against HIV-induced cytopathic effect in MT-4 cells, MTT) | pCC50 (M) (mock-infected MT-4 cells; −log CC50, mock-infected MT-4 cells, MTT) |
| --- | --- | --- | --- | --- | --- |
| Cc1cc(/C=C/C(=O)N(C)CCC#N)cc(C)c1Oc1ccnc(Nc2ccc(C#N)cc2)n1 [Compound 214] | −3.5 | 8.6 M | 5.1 M | – | – |
| CCN(C)C(=O)/C=C/c1cc(C)c(Oc2ccnc(Nc3ccc(C#N)cc3)n2)c(C)c1 [Compound 215] | −3.6 | 9.1 M | 5.5 M | – | – |
| Cc1cc(/C=C/C(=O)N(C)C)cc(C)c1Oc1ccnc(Nc2ccc(C#N)cc2)n1 [Compound 219] | −4.1 | 9.1 M | 5 M | – | – |
| Cc1cc(CCC#N)ccc1Nc1ccnc(Nc2ccc(C#N)cc2)n1 [Compound 227] | <−5.5 | 9.5 M | <4.0 M | – | – |
| CC(C#N)=Cc1ccc(Nc2ccnc(Nc3ccc(C#N)cc3)n2)c(C)c1 [Compound 229] | <−4.8 | 8.8 M | <4.0 M | – | – |
| Cc1cc(/C=C/C#N)ccc1Oc1ccnc(Nc2ccc(C#N)cc2)n1 [Compound 230] | <−5.2 | 9.2 M | <4.0 M | – | – |
| CC(C#N)=Cc1ccc(Oc2ccnc(Nc3ccc(C#N)cc3)n2)c(C)c1 [Compound 231] | <−5.2 | 9.2 M | <4.0 M | – | – |
| C/C(=C\C#N)c1ccc(Oc2ccnc(Nc3ccc(C#N)cc3)n2)c(C)c1 [Compound 232] | <−4.4 | 8.4 M | <4.0 M | – | – |
| CC(C#N)=Cc1cc(C)c(Nc2ccnc(Nc3ccc(C#N)cc3)n2)c(Cl)c1 [Compound 233] | −3.6 | 9.3 M | 5.7 M | – | – |
| Cc1cc(CCC#N)ccc1Oc1ccnc(Nc2ccc(C#N)cc2)n1 [Compound 234] | <−4.7 | 8.7 M | <4.0 M | – | – |
| Cc1cc(C(C)CC#N)ccc1Oc1ccnc(Nc2ccc(C#N)cc2)n1 (stereo not shown) [Compound 235] | <−5.3 | 9.3 M | <4.0 M | – | – |
| Cc1cc(CC(C)C#N)ccc1Oc1ccnc(Nc2ccc(C#N)cc2)n1 (stereo not shown) [Compound 236] | <−4.8 | 8.8 M | <4.0 M | – | – |
| Cc1cc(/C=C/C#N)ccc1Nc1ccnc(Nc2ccc(C#N)cc2)n1 [Compound 237] | <−4.9 | 8.9 M | <4.0 M | – | – |
| Cc1cc(CC#N)cc(Cl)c1Nc1ccnc(Nc2ccc(C#N)cc2)n1 [Compound 238] | −3.9 | 9.5 M | 5.6 M | – | – |
| Cc1cc(/C=C/C#N)cc(-c2ccco2)c1Nc1ccnc(Nc2ccc(C#N)cc2)n1 [Compound 239] | −3.9 | 8.9 M | 5 M | – | – |
| Cc1cc(CN(C)CCC#N)cc(Br)c1Nc1ccnc(Nc2ccc(C#N)cc2)n1 [Compound 241] | −4.1 | 9.4 M | 5.3 M | – | – |
| N#C/C=C/c1ccc(Nc2ccnc(Nc3ccc(C#N)cc3)n2)c(Br)c1 [Compound 244] | −5.2 | 9.2 M | 4 M | – | – |
| COc1cc(/C=C/C#N)ccc1Nc1ccnc(Nc2ccc(C#N)cc2)n1 [Compound 245] | −4.8 | 8.8 M | 4 M | – | – |
| CC(C#N)=Cc1cc(C)c(Nc2ccnc(Nc3ccc(C#N)cc3)n2)c(Br)c1 [Compound 247] | −3 | 9.2 M | 6.2 M | – | – |
| Cc1cc(/C=C/C#N)cc(Br)c1Nc1ccnc(Nc2ccc(C#N)cc2)n1 [Compound 248] | −3.5 | 9.3 M | 5.7 M | – | – |
| COc1cc(C=C(C)C#N)ccc1Nc1ccnc(Nc2ccc(C#N)cc2)n1 [Compound 249] | −4.5 | 8.5 M | 4 M | – | – |
| COc1cc(CCC#N)ccc1Nc1ccnc(Nc2ccc(C#N)cc2)n1 [Compound 251] | −3.9 | 8.9 M | 5 M | – | – |
